Reference: ChEMBL document CHEMBL1130081, “Inhibition of human telomerase by a G-quadruplex-interactive compound” (J Med Chem, 1997)

Target: Telomerase reverse transcriptase (Homo sapiens, UniProt O14746)
Test: Inhibitory concentration against human telomerase.

Sequence of Telomerase reverse transcriptase (O14746 whole entry): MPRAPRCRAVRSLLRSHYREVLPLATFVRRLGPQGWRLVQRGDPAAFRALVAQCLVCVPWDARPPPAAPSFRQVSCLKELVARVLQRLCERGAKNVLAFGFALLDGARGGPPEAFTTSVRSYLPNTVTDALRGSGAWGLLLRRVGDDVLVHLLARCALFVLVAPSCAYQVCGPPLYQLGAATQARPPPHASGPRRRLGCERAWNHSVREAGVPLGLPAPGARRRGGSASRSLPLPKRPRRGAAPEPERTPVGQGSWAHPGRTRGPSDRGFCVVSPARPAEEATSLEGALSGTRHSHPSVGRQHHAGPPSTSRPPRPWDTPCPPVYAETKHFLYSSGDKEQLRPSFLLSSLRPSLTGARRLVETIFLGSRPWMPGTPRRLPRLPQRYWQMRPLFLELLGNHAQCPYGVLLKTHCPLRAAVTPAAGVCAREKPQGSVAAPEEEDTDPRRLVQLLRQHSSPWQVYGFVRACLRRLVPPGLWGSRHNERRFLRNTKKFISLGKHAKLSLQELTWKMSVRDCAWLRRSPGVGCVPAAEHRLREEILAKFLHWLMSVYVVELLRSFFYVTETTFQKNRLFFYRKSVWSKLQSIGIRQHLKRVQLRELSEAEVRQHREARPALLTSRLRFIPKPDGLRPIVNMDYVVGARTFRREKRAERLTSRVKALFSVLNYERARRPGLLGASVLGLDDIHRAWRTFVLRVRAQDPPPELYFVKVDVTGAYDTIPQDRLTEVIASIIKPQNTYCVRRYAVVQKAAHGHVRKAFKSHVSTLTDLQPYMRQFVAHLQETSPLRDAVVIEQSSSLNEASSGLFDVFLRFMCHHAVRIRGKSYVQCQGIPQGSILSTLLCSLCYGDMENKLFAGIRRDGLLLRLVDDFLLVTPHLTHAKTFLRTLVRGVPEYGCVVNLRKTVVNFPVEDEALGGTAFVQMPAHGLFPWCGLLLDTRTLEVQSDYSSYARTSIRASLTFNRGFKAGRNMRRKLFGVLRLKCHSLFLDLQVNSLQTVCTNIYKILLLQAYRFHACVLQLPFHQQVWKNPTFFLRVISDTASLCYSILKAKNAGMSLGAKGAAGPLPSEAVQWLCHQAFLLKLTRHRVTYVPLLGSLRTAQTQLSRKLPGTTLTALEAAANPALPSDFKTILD

IC50: 23 µM
Structure (SMILES): C[N+]1(CCC(=O)Nc2ccc3c(c2)C(=O)c2ccc(NC(=O)CC[N+]4(C)CCCCC4CO)cc2C3=O)CCCCC1CO (stereo unspecified)
